Consider two molecules from patent publication US20240024292A1, “ATALUREN EYE DROP FORMULATION” (INSTITUT NATIONAL DE LA SANTÉ ET DE LA RECHERCHE MÉDICALE, priority 2020, published 2024).

The conditions of data set [1]: ophthalmic application, DMSO in association with dilute povidone-iodine; cited from earlier work.
The conditions of data set [2]: cited from earlier work.
A short description of data set [3]: Forced degradation studies (acidic, alkaline, oxidative stress at 60° C.), HPLC quantification. Format: physicochemical. The method, then: (§1) For each unit, ataluren was quantified using the liquid chromatography method adapted from the method described by Kong et al.. Analyses were performed on a Thermo Scientific Ultimate 3000 chromatogram system (Villebon-sur-Yvette, France) including a quaternary pump (LPG 3400A), an automatic sampler (WPS 3000TSL), a diode array detector (DAD 300016) with 5 cm flow cell, and the associated software used to record and interpret chromatograms (Chromeleon®, Version 8.0). The stationary phase consisted in a Kinetex® C18 column (250×4.6 mm; 5 μm, Phenomenex, Le Pecq, France). The mobile phase was a gradient mixture of 0.1% formic acid (A) and acetonitrile (B). The flow rate was maintained at 1 mL/min, and the gradient profile was as follows: t0-11 min: A=30% B=70%; t11-15 min A=70% B=30%. The injection volume was 50 μL. The drug absorbance for quantification was obtained at 276 nm.
[…] To mimic the potential photodegradation occurring prior or after drug administration, photolytic studies were carried out by exposing the drug solutions to direct UV-visible light with and without photocatalyst or photosensitizer (i.e. titanium oxide 1 g L-1, riboflavin 100 mg L-1). Photolysis experiments were performed using a QSUN-XE-1 (Q-Lab, Bolton, United Kingdom) light chamber equipped with a xenon lamp, which simulates natural sunlight in a wavelength range of 300-800 nm. […]

Data set [4] can be described thus: Photolysis under simulated sunlight, with and without photocatalyst or photosensitizer. Format: physicochemical. The conditions noted are these: for % remaining: Direct photolysis, visible ~119,600 lx, UVA 300-400 nm 66.5 W m^−2; for degradation in direct photolytic stress condition: direct light exposure. The method, then:
as §1
The specificity was assessed by subjecting the ataluren 1% solubilized in DMSO (10%) and castor oil solutions to various forced degradation conditions: 0.1M hydrochloric acid (HCl), 0.1M sodium hydroxide (NaOH), 0.3% and 15% hydrogen peroxide (H2O2) for 24 h, 48 h, and 72 h at 60° C. To mimic the potential photodegradation occurring prior or after drug administration, photolytic studies were carried out by exposing the drug solutions to direct UV-visible light with and without photocatalyst or photosensitizer (i.e. titanium oxide 1 g L-1, riboflavin 100 mg L-1). Photolysis experiments were performed using a QSUN-XE-1 (Q-Lab, Bolton, United Kingdom) light chamber equipped with a xenon lamp, which simulates natural sunlight in a wavelength range of 300-800 nm. A Daylight-Q filter was used to simulate CIE Standard Illuminant D65 (Q-Lab) and irradiance was maintained constant (1.5 W m-2 at 420 nm). The measurements corresponded to a visible intensity of ˜119,600 1×, and a UVA intensity at 300-400 nm of 66.5 W m-2. For all the experiments the temperature was controlled and set at 25±0.5° C.

Values after ≈ are worked out from the molar mass of the structure shown. “Also recorded” adds a separate entry of the source.

Take `C[S+](C)[O-]` [DMSO, dimethylsulfoxyde]: the “patients with mild irritation (stinging, tingling or burning at the application), without serious adverse effects” value in data set [1] was 11.8%.
Regarding `O=C(O)c1cccc(-c2noc(-c3ccccc3F)n2)c1` [ataluren, 3-(5-(2-fluorophenyl)-1,2,4-oxadiazol-3-yl)benzoic acid], the solubility (usually the concentration that dissolves in the medium under given conditions) in data set [2] (1:1 solution of DMSO: PBS pH 7.2) is roughly 500 µg/mL (≈ 1760 µM). The “solubility in aqueous buffers” value in data set [2] (aqueous buffers) is on record as “sparingly soluble”. In addition, in data set [2] (organic solvents such as dimethyl sulfoxide (DMSO)), the “solubility in organic solvents” value is on record as “soluble”. In data set [2] (water), the solubility in water entry was “very slightly soluble”. Besides, the “appearance of degradation products” value in data set [3] (15% hydrogen peroxide exposure) is given as “Degradation products appeared”. Besides, the degradation under stress entry in data set [3] (strong acidic, basic or 0.3% H2O2 conditions, after 7 days exposure) is reported as “not degraded”. Further, the “% remaining” value is listed as 100.1% in data set [4] (30 min exposition), 102.4% in data set [4] (60 min exposition), 100.1% in data set [4] (180 min exposition) and 103.4% in data set [4] (360 min exposition). Moreover, the “degradation in direct photolytic stress condition” value in data set [4] was “not degraded”; in data set [4] (listed as Ataluren) it was “did not decrease”. Further, the “degradation under light with photocatalyst” value in data set [4] (in presence of photocatalyst agent (titanium oxide)) is on record as “rapidly degraded; also recorded: decreased”. The “degradation under light with photosensitizer” value in data set [4] (in the presence of riboflavin) is “This was not the case; also recorded: no degradation was observed”.
